How the values were obtained:
[1] = tested on: portal vein isolated from rat; assay: Test 1: Inhibition of the contraction induced by noradrenaline in portal vein isolated from rat; conditions: 0.5 h
Experimental: Test 1: Inhibition of the contraction induced by noradrenaline in portal vein isolated from rat.
Portal vein was extracted from adult male rats (between 200 and 250 g of body weight), which had been stunned by a blow in the head. Portal vein was installed into an isolated organ bath (Letica) containing a physiological saline solution (Hamilton et al., Br. J. Pharmacol., 1986, 88, 103-111) at 37 C and a gas bubbler (5% C02 and 95% 02). Contractions were induced by noradrenaline (3µM) and were reverted after thoroughly washing with physiological saline solution. Portal vein contraction was measured with an isometric force transducer and with an initial tension of 1 g. After two contractions with noradrenaline, performed in order to measure the tissue's basal response, the tested compounds were incubated for 30 minutes and a new contraction was induced.

[2] = tested on: Spontaneously hypertense rats; assay: Test 2: Lowering of the arterial pressure in conscious hypertense rats; type: in vivo, rat; conditions: caudal artery, 3 animals, value ± SEM
Experimental: Test 2: Lowering of the arterial pressure in conscious hypertense rats.
Spontaneously hypertense rats (between 200 and 250 g of body weight) of more than 8 weeks of age have been used. Diastolic and systolic arterial pressure of the rat was measured at the caudal artery using a special sphygnomanometer (Letica 5007 and 5007/4) attached to the animal's tail. To ensure rapid and reliable data, animals were placed in a heating plate at 37 °C, with the aim to produce a vasodilatation that ensured a better fixation of the rat tail to the transducer chamber. During the experiment, rats are conscious and fixed to a clamp. The tested products were administered orally. Arterial pressure was measured every 30 minutes and 10 minutes before the administration of the tested compound. The decrease of the arterial pressure was calculated for each compound at a dose of 1 mg/Kg, using 3 animals.

[3] = tested on: trachea isolated from guinea pig; assay: Test 3: Direct relaxation of the trachea isolated from guinea pig; conditions: 50% of the maximum relaxation, maximum = relaxation induced by isoproterenol at 1x10-6 M, cumulative addition
Experimental: Test 3 -Direct relaxation of the trachea isolated from guinea pig.
This test was performed according to the experimental model described by Emmerson, J. and Mackay, D. (J. Pharm. Pharmacol., 1979, 31, 798). Tracheas were extracted from male guinea pigs of 400 g of body weight, which had been stunned by a blow in the head. Then, tracheas were cut in zigzag and placed into an isolated organ bath (Letica) containing Krebs-Henseleit solution at 37 °C and were bubbled with carbogen (95% 02 and 5% C02). The relaxation of the trachea was measured using an isometric force transducer. The basal tension was 0.5 g.

| Structure (SMILES) | IC50 [1] [µM] | EC50 ([3]; Cavia porcellus) [µM] | EC50 [3] [µM] | Pressure Decrease (mm Hg) ± SEM (1 mg/Kg p.o.) [2] [mm Hg] |
| --- | --- | --- | --- | --- |
| COc1ccc(C(=O)N[C@@H]2c3cc(C#N)ccc3C(=O)C(C)(C)[C@H]2O)cc1 (relative stereo) [Compound 19, Trans-2,2-dimethyl-3-hydroxy-4-(4-methoxyphenylcarbonylamino)-1-oxo-1,2,3,4-tetrahydronaphthalen-6-carbonitrile] | 12 | 0.3 |  | 46.7 ± 8.6 |
| CC(=NC#N)NC1c2cc(C#N)ccc2C(=O)C(C)(C)C1O (stereo not drawn) [Compound 22, Trans-4-(N-cyanoacetimidoylamino)-2,2-dimethyl-3-hydroxy-1-oxo-1,2,3,4-tetrahydronaphthalen-6-carbonitrile] |  | 1.8 |  |  |
| CC1(C)C(=O)c2ccc(C#N)cc2[C@@H](NC(=O)c2ccccc2)[C@@H]1O (relative stereo) [Compound 18, Trans-2,2-dimethyl-3-hydroxy-1-oxo-4-(phenylcarbonylamino)-1,2,3,4-tetrahydronaphthalen-6-carbonitrile] |  | 2.1 |  | 31.0 ± 11.9 |
| CC1(C)C(=O)c2ccc(C#N)cc2C(Nc2cc(Cl)ncn2)C1O (stereo not drawn) [Compound 23] | 3.7 | 4.4 |  | 45.5 ± 11.5 |
| CC1(C)C(=O)c2ccc(C#N)cc2[C@@H](NC(=O)c2ccoc2)[C@@H]1O (relative stereo) [Compound 17, Trans-2,2-dimethyl-4-(3-furylcarbonylamino)-3-hydroxy-1-oxo-1,2,3,4-tetrahydronaphthalen-6-carbonitrile] |  |  |  | 58.0 ± 17.5 |
| CC1(C)C(=O)c2ccc(C#N)cc2[C@@H](OC2=CC(=O)CC2)[C@@H]1O (relative stereo) [Compound 12, Trans-2,2-dimethyl-3-hydroxy-1-oxo-4-(3-oxo-1-cyclopent-1-enyloxy)-1,2,3,4-tetrahydronaphthalen-6-carbonitrile] |  |  |  | 50.0 ± 16.0 |
| CC1(C)C(=O)c2ccc(C#N)cc2[C@@H](NC(=O)c2cccnc2)[C@@H]1O (relative stereo) [Compound 15, Trans-2,2-dimethyl-3-hydroxy-1-oxo-4-(3-pyridylcarbonylamino)-1,2,3,4-tetrahydronaphthalen-6-carbonitrile] | 2.8 | 4.9 |  | 50.0 ± 9.8 |

The next lines start with results.

| IC50 [1] [µM] | EC50 ([3]; Cavia porcellus) [µM] | EC50 [3] [µM] | Structure (SMILES) | Pressure Decrease (mm Hg) ± SEM (1 mg/Kg p.o.) [2] [mm Hg] |
| --- | --- | --- | --- | --- |
| 2.8 | 0.31 |  | Cn1nc(O[C@@H]2c3cc(C#N)ccc3C(=O)C(C)(C)[C@H]2O)ccc1=O (racemic) [Compound 2, Rac-Trans-2,2-dimethyl-3-hydroxy-4-(6-hydroxy-1-methyl-3-pyridazinyloxy)-1-oxo-1,2,3,4-tetrahydronaphthalen-6-carbonitrile] | 112.0 ± 1.0 |
| 14 | 3.3 |  | C=CCn1nc(O[C@@H]2c3cc(C#N)ccc3C(=O)C(C)(C)[C@H]2O)ccc1=O (relative stereo) [Compound 5, Trans-2,2-dimethyl-3-hydroxy-4-[6-hydroxy-1-(2-propenyl)-3-pyridazinyloxy]-1-oxo-1,2,3,4-tetrahydronaphthalen-6-carbonitrile] | 20.5 ± 0.5 |
| 23 |  |  | CC1(C)C(=O)c2ccc(C#N)cc2[C@@H](NC(=O)c2ccccn2)[C@@H]1O (relative stereo) [Compound 14, Trans-2,2-dimethyl-3-hydroxy-1-oxo-4-(2-pyridylcarbonylamino)-1,2,3,4-tetrahydronaphthalen-6-carbonitrile] | 71.7 ± 14.2 |
| 25 | 5.8 |  | CC1(C)C(=O)c2ccc(C#N)cc2[C@@H](Oc2ccccn2)[C@@H]1O (relative stereo) [Compound 11, Trans-2,2-dimethyl-3-hydroxy-1-oxo-4-(2-pyridyloxy)-1,2,3,4-tetrahydronaphthalen-6-carbonitrile] | 43.0 ± 16.0 |
| 0.8 | 15.6 |  | CC1(C)C(=O)c2ccc(Br)cc2[C@@H](Oc2ccc(O)nn2)[C@@H]1O (relative stereo) [Compound 8, Trans-6-bromo-2,2-dimethyl-3-hydroxy-4-(6-hydroxy-3-pyridazinyloxy)-1,2,3,4-tetrahydronaphthalen-1-one] | 46.5 ± 0.3 |
| 8.8 | 5.2 |  | CC1(C)C(=O)c2ccc(C#N)cc2[C@@H](Oc2ccc(O)nn2)[C@@H]1O (relative stereo) [Compound 1, Trans-2,2-dimethyl-3-hydroxy-4-(6-hydroxy-3-pyridazinyloxy)-1-oxo-1,2,3,4-tetrahydronaphthalen-6-carbonitrile] | 116.0 ± 5.9 |
|  |  | 4.6 | Cn1nc(O[C@@H]2c3cc(C#N)ccc3C(=O)C(C)(C)[C@H]2O)ccc1=O (single isomer, unassigned) [Compound 4, ( + ).Trans-2,2-d i methyl-3-hyd roxy-4-(6-hydroxy-1-methyl-3-pyridazinyloxy)-1-oxo-1,2,3,4-tetrahydronaphthalen-6-carbonitrile] |  |
|  |  | 0.3 | Cn1nc(O[C@@H]2c3cc(C#N)ccc3C(=O)C(C)(C)[C@H]2O)ccc1=O (single isomer, unassigned) [Compound 3, (-)-Trans-2,2-dimethyl-3-hydroxy-4-(6-hydroxy-1-methyl-3-pyridazlnyloxy)-1-oxo-1,2,3,4-tetrahydronaphthalen-6-carbonitrile] |  |

From patent publication EP0525768A1, “Tetralones with pharmacological activity” (J. URIACH & CIA. S.A., priority 1991, dated 1993)
